Measured values reported in patent US20250242064A1, “CXCR4-TARGETING COMPOUNDS, AND METHODS OF MAKING AND USING THE SAME” (PROVINCIAL HEALTH SERVICES AUTHORITY, priority 2022, published 2025).
One block for each compound: values may come before it. Where a SMILES comes first, the peptide text is derived from it. Bridges are numbered along the chain shown (N, C = ends). Side-chain parts run from the residue outwards. [ ]: non-standard residue; d: D form. The star is where a group is joined. X1 = O=C(O)CN1CCN(CC(=O)O)CCN(CC(=O)N[C@@H](CS(=O)(=O)O)C(=O)N[C@@H](CCCCNC(=O)CCCc2ccc(I)cc2)C(=O)*)CCN(CC(=O)O)CC1; X6 = COc1ccc(CCCC(=O)NCCCC[C@H](NC(=O)[C@H](CS(=O)(=O)O)NC(=O)CN2CCN(CC(=O)O)CCN(CC(=O)O)CCN(CC(=O)O)CC2)C(=O)*)cc1; X7 = COc1ccc(CCCC(=O)NCCCC[C@H](NC(=O)CN2CCN(CC(=O)O)CCN(CC(=O)O)CCN(CC(=O)O)CC2)C(=O)*)cc1; 2Nal = N[C@@H](Cc1ccc2ccccc2c1)C(=O)O; Lys(iPr) = CC(C)NCCCC[C@H](N)C(=O)O; Cya = N[C@@H](CS(=O)(=O)O)C(=O)O

Columns and labels:
[1] = target: CXCR4 (Homo sapiens, UniProt P61073); test: Competitive binding assay, [125I]SDF-1α displacement on CHO:CXCR4 cells; parameters: expressed in transfected cells; host or cells: CHO:CXCR4 cells; settings: [125I]SDF-1α 0.01 nM, 1 h at 27° C., read-out: IC50 (nM), binding affinity for hCXCR4
CXCR4, sequence (P61073 whole entry): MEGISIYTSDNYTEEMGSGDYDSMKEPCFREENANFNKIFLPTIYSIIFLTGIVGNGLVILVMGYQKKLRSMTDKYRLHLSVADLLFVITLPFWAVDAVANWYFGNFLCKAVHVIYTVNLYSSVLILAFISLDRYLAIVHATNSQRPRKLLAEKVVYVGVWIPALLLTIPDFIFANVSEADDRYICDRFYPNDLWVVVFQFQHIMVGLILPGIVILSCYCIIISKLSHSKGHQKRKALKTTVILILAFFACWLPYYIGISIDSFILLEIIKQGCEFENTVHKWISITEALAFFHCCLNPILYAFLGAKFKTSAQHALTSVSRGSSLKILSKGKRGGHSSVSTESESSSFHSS
Method: CHO:CXCR4 cells were seeded at a density of 1×10^5 cells/well in 24-well poly-D-lysine coated plates (Corning BioCoat) and incubated with [^125I]SDF-1α (0.01 nM, PerkinElmer) and competing nonradioactive ligands ([…]). The cells, radioligand, and competing peptides were incubated for 1 h at 27° C. with moderate shaking. Following the incubation period, the supernatant was aspirated, followed by three washes with 1 mL of ice-cold PBS. Cells were harvested with 200 μL of trypsin and counted on a y counter. Data were plotted in GraphPad Prism 7 to determine IC50 values (GraphPad Software, Inc., La Jolla, CA). The values are reported as mean±standard deviation.

[2] = test system: Z138 tumor-bearing mice; test: in vivo; settings: male, NOD.Cg-Rag1tm1Mom Il2rgtm1Wjl/SzJ (NRG), mouse, iv
In short: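 Male NRG mice bearing subcutaneous Z138 mantle cell lymphoma xenografts (5×10^6 cells, grown to 200-300 mm^3) injected intravenously under isoflurane with 68Ga-labelled tracers. Harvested tissues weighed and gamma-counted; uptake expressed as % ID/g.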

- IC50 [1]: 10 to 50 nM
SMILES: COc1ccc(CCCC(=O)NCCCC[C@H](NC(=O)CN2CCN(CC(=O)O)CCN(CC(=O)O)CCN(CC(=O)O)CC2)C(=O)N[C@@H](CS(=O)(=O)O)C(=O)NCCCC[C@@H]2NC(=O)CC[C@H](C(=O)N[C@@H](CCCCNC(C)C)C(N)=O)NC(=O)[C@@H](C)NC(=O)[C@H](Cc3ccc4ccccc4c3)NC(=O)[C@@H](CCCNC(=N)N)NC(=O)[C@H](CCCCNC(C)C)NC(=O)[C@H](Cc3ccc(O)cc3)NC2=O)cc1 [BL34L6] (K([Cya-X7])Y[Lys(iPr)][dR][2Nal][dA][dE][Lys(iPr)]-NH2; lactam N-7)

- Biodistribution: Adrenals ([2]; 1 h): 3.76 % ID/g
- Biodistribution: Blood ([2]; 1 h): 18.59 % ID/g
- Biodistribution: Bone ([2]; 1 h): 1.16 % ID/g
- Biodistribution: Brain ([2]; 1 h): 0.29 % ID/g
- Biodistribution: Heart ([2]; 1 h): 4.23 % ID/g
- Biodistribution: Kidneys ([2]; 1 h): 5.23 % ID/g
- Biodistribution: Liver ([2]; 1 h): 3.14 % ID/g
- Biodistribution: Lungs ([2]; 1 h): 14.83 % ID/g
- Biodistribution: Muscle ([2]; 1 h): 1.20 % ID/g
- Biodistribution: Pancreas ([2]; 1 h): 1.80 % ID/g
- Biodistribution: Small Intestine ([2]; 1 h): 1.56 % ID/g
- Biodistribution: Spleen ([2]; 1 h): 1.56 % ID/g
- Biodistribution: Stomach ([2]; 1 h): 0.61 % ID/g
- Biodistribution: Testes ([2]; 1 h): 2.49 % ID/g
- Biodistribution: Z138 Tumor ([2]; 1 h): 4.09 % ID/g
- Ratio Tumor-to-Blood ([2]; 1 h): 0.22
- Ratio Tumor-to-Bone ([2]; 1 h): 2.39
- Ratio Tumor-to-Kidney ([2]; 1 h): 0.78
- Ratio Tumor-to-Muscle ([2]; 1 h): 3.35
- Ratio Tumor-to-Pancreas ([2]; 1 h): 2.31
- Biodistribution: Adrenals ([2]; 3 h): 3.12 % ID/g
- Biodistribution: Blood ([2]; 3 h): 14.23 % ID/g
- Biodistribution: Bone ([2]; 3 h): 0.97 % ID/g
- Biodistribution: Brain ([2]; 3 h): 0.22 % ID/g
- Biodistribution: Heart ([2]; 3 h): 3.34 % ID/g
- Biodistribution: Kidneys ([2]; 3 h): 3.92 % ID/g
- Biodistribution: Liver ([2]; 3 h): 3.18 % ID/g
- Biodistribution: Lungs ([2]; 3 h): 7.95 % ID/g
- Biodistribution: Muscle ([2]; 3 h): 1.25 % ID/g
- Biodistribution: Pancreas ([2]; 3 h): 1.54 % ID/g
- Biodistribution: Small Intestine ([2]; 3 h): 1.35 % ID/g
- Biodistribution: Spleen ([2]; 3 h): 2.03 % ID/g
- Biodistribution: Stomach ([2]; 3 h): 0.83 % ID/g
- Biodistribution: Testes ([2]; 3 h): 3.53 % ID/g
- Biodistribution: Z138 Tumor ([2]; 3 h): 9.81 % ID/g
- Ratio Tumor-to-Blood ([2]; 3 h): 0.69
- Ratio Tumor-to-Bone ([2]; 3 h): 8.14
- Ratio Tumor-to-Kidney ([2]; 3 h): 2.52
- Ratio Tumor-to-Muscle ([2]; 3 h): 7.89
- Ratio Tumor-to-Pancreas ([2]; 3 h): 6.59
SMILES: CC(C)NCCCC[C@H](NC(=O)[C@H]1CCC(=O)N[C@@H](CCCCNC(=O)[C@H](CCCCNC(=O)CCCc2ccc(I)cc2)NC(=O)[C@H](CS(=O)(=O)O)NC(=O)CN2CCN(CC(=O)O)CCN(CC(=O)O)CCN(CC(=O)O)CC2)C(=O)N[C@@H](Cc2ccc(O)cc2)C(=O)N[C@@H](CCCCNC(C)C)C(=O)N[C@H](CCCNC(=N)N)C(=O)N[C@@H](Cc2ccc3ccccc3c2)C(=O)N[C@H](C)C(=O)N1)C(N)=O [[^177Lu]Lu-BL34L11] [metal not drawn] (K(X1)Y[Lys(iPr)][dR][2Nal][dA][dE][Lys(iPr)]-NH2; lactam N-7)

- IC50 [1]: 10 to 50 nM
SMILES: COc1ccc(CCCC(=O)NCCCC[C@H](NC(=O)[C@H](CS(=O)(=O)O)NC(=O)CN2CCN(CC(=O)O)CCN(CC(=O)O)CCN(CC(=O)O)CC2)C(=O)NCCCC[C@@H]2NC(=O)CC[C@H](C(=O)N[C@@H](CCCCNC(C)C)C(N)=O)NC(=O)[C@@H](C)NC(=O)[C@H](Cc3ccc4ccccc4c3)NC(=O)[C@@H](CCCNC(=N)N)NC(=O)[C@H](CCCCNC(C)C)NC(=O)[C@H](Cc3ccc(O)cc3)NC2=O)cc1 [BL34L7] (K(X6)Y[Lys(iPr)][dR][2Nal][dA][dE][Lys(iPr)]-NH2; lactam N-7)
